How the values were obtained:
[1] = tested on: liver, spleen and blood of mice; assay: ISG gene expression (OAS, Pkr, Mx1) in liver, spleen and blood of injected C57BL/6 mice (real-time PCR); assay type: in vivo, mouse; conditions: livers of mice, 100 μg i.v.
Protocol: Mice were sacrificed at various time points (1 hr-48 hr). Spleens and livers were isolated from mice, and RNA was isolated. RNA was also isolated from the blood cells. The cells were pelleted and RNA isolated from pellets using RNAEasy®-kit (Qiagen). RNA was treated with DNase (Amicon) to rid RNA of any contaminating DNA. cDNA was generated using Perkin-Elmer RT mix (Perkin-Elmer). ISG gene induction was measured by real-time PCR using primers and probes specific for mouse OAS, Pkr and Mx1. To obtain quantitative data, HPRT real-time PCR was duplexed with ISG PCR. A standard curve was calculated using known amounts of IFN-stimulated mouse PBLs. All data are shown as expression relative to internal HPRT expression.

[2] = target: T1, zcyto20 (human IL-28A) (human) (UniProt Q8IZJ0); assay: cell-based or functional assay
T1 sequence: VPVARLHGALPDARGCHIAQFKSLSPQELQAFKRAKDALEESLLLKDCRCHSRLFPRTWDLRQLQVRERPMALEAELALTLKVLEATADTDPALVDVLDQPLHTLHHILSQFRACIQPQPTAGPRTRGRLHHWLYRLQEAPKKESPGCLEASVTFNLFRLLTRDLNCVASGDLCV

[3] = target: zcyto21 (human IL-29) (human) (UniProt Q8IU54); assay: cell-based or functional assay
[4] = target: T2, zcyto24 (mouse IL-28A) (mouse) (UniProt Q4VK74); assay: cell-based or functional assay
T2 sequence: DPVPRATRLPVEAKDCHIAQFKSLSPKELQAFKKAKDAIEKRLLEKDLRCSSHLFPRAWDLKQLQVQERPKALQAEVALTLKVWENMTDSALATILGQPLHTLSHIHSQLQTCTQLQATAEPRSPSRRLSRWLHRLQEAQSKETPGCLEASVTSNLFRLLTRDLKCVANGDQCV

[5] = tested on: 293 HEK cells overexpressing zcytor19; assay: Inhibition of ligand-induced ISRE-luciferase signaling by soluble receptors; assay type: cell-based, human; conditions: 10 micrograms/ml soluble receptor

Sequence of zcyto21 (human IL-29) (human) (Q8IU54 20-200): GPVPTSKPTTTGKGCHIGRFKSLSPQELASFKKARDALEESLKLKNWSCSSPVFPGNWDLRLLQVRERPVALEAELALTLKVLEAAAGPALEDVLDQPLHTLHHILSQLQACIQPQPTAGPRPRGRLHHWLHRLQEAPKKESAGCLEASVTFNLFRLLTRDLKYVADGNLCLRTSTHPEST

With “MetIL-29-PEG: E. coli derived pegylated Met IL-29” the “Mx1 3 hr” value ([1]; 3 hr) was 537.51 fold expression over HPRT expression, the “OAS 3 hr” value ([1]; 3 hr) was 91.29 fold expression over HPRT expression and the “PKR 3 hr” value ([1]; 3 hr) was 18.24 fold expression over HPRT expression. The “Mx1 6 hr” value ([1]; 6 hr) was 124.99 fold expression over HPRT expression, the “OAS 6 hr” value ([1]; 6 hr) was 65.93 fold expression over HPRT expression and the “PKR 6 hr” value ([1]; 6 hr) was 13.93 fold expression over HPRT expression. For the same molecule, the “Mx1 12 hr” value ([1]; 12 hr) was 33.58 fold expression over HPRT expression, the “OAS 12 hr” value ([1]; 12 hr) was 54.04 fold expression over HPRT expression and the “PKR 12 hr” value ([1]; 12 hr) was 4.99 fold expression over HPRT expression. For the same molecule, the “Mx1 24 hr” value ([1]; 24 hr) was 35.82 fold expression over HPRT expression, the “OAS (24 hr)” value ([1]; 24 hr) was 20.81 fold expression over HPRT expression and the “PKR 24 hr” value ([1]; 24 hr) was 3.77 fold expression over HPRT expression.

For “human CRF2-4-Fc homodimer (from UniProt Q08334 20-220) (Fc fusion)”, the Percent Inhibition of Ligand-induced Interferon Stimulated Response Element (ISRE) Signaling by Soluble Receptors [2] was 80%, the Percent Inhibition of Ligand-induced Interferon Stimulated Response Element (ISRE) Signaling by Soluble Receptors [3] was 79% and the Percent Inhibition of Ligand-induced Interferon Stimulated Response Element (ISRE) Signaling by Soluble Receptors [4] was 82%.

“human zcytor19-Fc/human CRF2-4-Fc heterodimer (from UniProt Q08334 20-220) (Fc fusion)” showed a Percent Inhibition of Ligand-induced Interferon Stimulated Response Element (ISRE) Signaling by Soluble Receptors [2] of 16%, a Percent Inhibition of Ligand-induced Interferon Stimulated Response Element (ISRE) Signaling by Soluble Receptors [3] of 16% and a Percent Inhibition of Ligand-induced Interferon Stimulated Response Element (ISRE) Signaling by Soluble Receptors [4] of 47%.

B1: huCRF2-4-Fc: homodimeric soluble receptor Fc fusion (protein)
chain: MVPPPENVRMNSVNFKNILQWESPAFAKGNLTFTAQYLSYRIFQDKCMNTTLTECDFSSLSKYGDHTLRVRAEFADEHSDWVNITFCPVDDTIIGPPGMQVEVLADSLHMRFLAPKIENEYETWTMKNVYNSWTYNVQYWKNGTDEKFQITPQYDFEVLRNLEPWTTYCVQVRGFLPDRNKAGEWSEPVCEQTTHDETVPS
modifications: left off: a dimerising Fc or GST
notes: homodimeric soluble receptor Fc fusion
For B1, the “effect on ligand-induced signaling” value [5] was “No significant effects”.

B2: muzcytor19-Ig: murine homodimeric soluble receptor Ig fusion (protein)
chain: RPRLAPPRNVTLFSQNFTVYLTWLPGLGSPPNVTYFVTYQSYIKTGWRPVEHCAGIKALVCPLMCLKKLNLYSKFKGRVQAASAHGRSPRVESRYLEYLFDVELAPPTLVLTQMEKILRVNATYQLPPCMPSLELKYQVEFWKEGLGSKTLFPDTPYGQPVQIPLQQGASRRHCLSARTVYTLIDIKYSQFSEPSCIFLEAPGDKRA
modifications: left off: a dimerising Fc or GST
notes: murine homodimeric soluble receptor Ig fusion
In the case of B2, the “effect on ligand-induced signaling” value [5] is reported as “No significant effects”.

B3: human zcytor19-Fc homodimer (Fc fusion, not shown: a dimerising Fc or GST)
chain: RPRLAPPQNVTLLSQNFSVYLTWLPGLGNPQDVTYFVAYQSSPTRRRWREVEECAGTKELLCSMMCLKKQDLYNKFKGRVRTVSPSSKSPWVESEYLDYLFEVEPAPPVLVLTQTEEILSANATYQLPPCMPPLDLKYEVAFWKEGAGNKTLFPVTPHGQPVQITLQPAASEHHCLSARTIYTFSVPKYSKFSKPTCFLLEVPEANWA
B3 gave a Percent Inhibition of Ligand-induced Interferon Stimulated Response Element (ISRE) Signaling by Soluble Receptors [2] of 92%, a Percent Inhibition of Ligand-induced Interferon Stimulated Response Element (ISRE) Signaling by Soluble Receptors [3] of 45% and a Percent Inhibition of Ligand-induced Interferon Stimulated Response Element (ISRE) Signaling by Soluble Receptors [4] of 90%.

B4: human zcytor19-Fc homodimeric soluble receptor: homodimeric soluble receptor Fc fusion (protein)
chain: B3 chain
modifications: left off: a dimerising Fc or GST
notes: as for B1
For B4, the “inhibition of zcyto2′-induced signaling” value [5] was 45%.

Reference: patent US20120114590A1 (priority 2005, published 2012)
